Results reported in patent US20250241926A1, “HETEROCYCLIC COMPOUNDS FOR USE IN THE TREATMENT OF CANCER” (ARTIOS PHARMA LIMITED, priority 2021, published 2025).

Biological target: T1, Human Polθ polymerase domain (aa1820-2590) (Homo sapiens, UniProt O75417)
T1 construct: Human Polθ polymerase domain (aa1820-2590) was expressed in E. Coli; made in house; host or cells: E. coli
T1 sequence (O75417 1820-2590): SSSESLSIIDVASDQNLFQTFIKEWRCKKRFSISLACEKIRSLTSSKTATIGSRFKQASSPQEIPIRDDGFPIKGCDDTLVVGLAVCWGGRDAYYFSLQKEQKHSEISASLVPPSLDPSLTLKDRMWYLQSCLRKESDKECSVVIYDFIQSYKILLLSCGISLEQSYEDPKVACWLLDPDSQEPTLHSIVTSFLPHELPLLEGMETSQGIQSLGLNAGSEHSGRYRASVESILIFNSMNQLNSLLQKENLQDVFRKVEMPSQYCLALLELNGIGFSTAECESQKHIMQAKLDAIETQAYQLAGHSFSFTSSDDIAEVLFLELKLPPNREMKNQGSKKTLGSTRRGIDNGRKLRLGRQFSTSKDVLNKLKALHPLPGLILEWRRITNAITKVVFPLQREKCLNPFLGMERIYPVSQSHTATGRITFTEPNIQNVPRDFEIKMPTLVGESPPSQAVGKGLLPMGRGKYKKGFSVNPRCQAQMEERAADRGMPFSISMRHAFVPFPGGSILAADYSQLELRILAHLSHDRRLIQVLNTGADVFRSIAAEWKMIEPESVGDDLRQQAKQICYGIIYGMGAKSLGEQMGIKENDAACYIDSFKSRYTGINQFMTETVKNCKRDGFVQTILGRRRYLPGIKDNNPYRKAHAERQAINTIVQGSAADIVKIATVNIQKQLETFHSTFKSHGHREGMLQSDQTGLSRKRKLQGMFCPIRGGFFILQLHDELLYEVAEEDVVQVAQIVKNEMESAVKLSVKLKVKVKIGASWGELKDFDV
Experiment: Polθ Polymerase Domain Kinact/Kl Assay (PicoGreen)
Type: biochemical
Conditions: covalent inhibitors, kobs vs [I] fit, 0.8 nM Polθ, 100 nM DNA substrate
Procedure, shortened: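 E. coli-expressed enzyme (0.8 nM final) was run with 100 nM annealed DNA substrate and dNTPs in Tris pH 7.5 buffer (1% DMSO), with EDTA stops across a time course up to 60 min. Synthesised DNA was read by PicoGreen fluorescence. kobs per inhibitor concentration was fitted from the time courses, and Kinact and KI came from the kobs-vs-[I] plot.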

| kinact/KI | SMILES |
| --- | --- |
| 60000 M⁻¹ s⁻¹ | C=CC(=O)N1CC(N2CC(=O)N(C)C(CN3CC[C@H](Nc4nc(C)cc(C(F)(F)F)c4C#N)C(=O)N(C)c4cccc(F)c43)C2)C1 (mixture of isomers) [Example 58A, 2-(((S)-6-(((S/R)-4-(1-Acryloylazetidin-3-yl)-1-methyl-6-oxopiperazin-2-yl)methyl)-7-fluoro-1-methyl-2-oxo-1,2,3,4,5,6-hexahydrobenzo[b][1,4]diazocin-3-yl)amino)-6-methyl-4-(trifluoromethyl)nicotinonitrile] |

Same assay, conditions: covalent inhibitors, kobs vs [I] fit, 0.8 nM Polθ, 100 nM DNA substrate, read-out: Kinact/KI

| kinact/KI | SMILES |
| --- | --- |
| 340000 M⁻¹ s⁻¹ | C=CC(=O)N1CCN(CC(O)CN2CC[C@H](Nc3nc(C)cc(C(F)(F)F)c3C#N)C(=O)N(C)c3ccccc32)CC1 (stereo partly drawn) [Example 35, 2-(((3S)-6-(3-(4-Acryloylpiperazin-1-yl)-2-hydroxypropyl)-1-methyl-2-oxo-1,2,3,4,5,6-hexahydrobenzo[b][1,4]diazocin-3-yl)amino)-6-methyl-4-(trifluoromethyl)nicotinonitrile] |
| 460000 M⁻¹ s⁻¹ | C=CC(=O)N1CC2(CN(CCN3CC[C@H](Nc4nc(C)cc(C(F)(F)F)c4C#N)C(=O)N(C)c4ccc(Cl)cc43)C2)C1 [Example 7, (S)-2-((6-(2-(6-Acryloyl-2,6-diazaspiro[3.3]heptan-2-yl)ethyl)-8-chloro-1-methyl-2-oxo-1,2,3,4,5,6-hexahydrobenzo[b][1,4]diazocin-3-yl)amino)-6-methyl-4-(trifluoromethyl)nicotinonitrile] |
| 240000 M⁻¹ s⁻¹ | Cc1cc(C(F)(F)F)c(C#N)c(N[C@H]2CCN(C[C@H]3CN(C4CN(C(=O)/C=C/CN(C)C)C4)CCO3)c3c(F)cccc3N(C)C2=O)n1 [Example 60, 2-(((S)-6-(((R)-4-(1-((E)-4-(Dimethylamino)but-2-enoyl)azetidin-3-yl)morpholin-2-yl)methyl)-7-fluoro-1-methyl-2-oxo-1,2,3,4,5,6-hexahydrobenzo[b][1,4]diazocin-3-yl)amino)-6-methyl-4-(trifluoromethyl)nicotinonitrile] |
| 550000 M⁻¹ s⁻¹ | C=CC(=O)N1CC(O[C@@H]2CN(CCN3CC[C@H](Nc4nc(C)cc(C(F)(F)F)c4C#N)C(=O)N(C)c4cccc(F)c43)C[C@H]2O)C1 (single isomer, unassigned) [Example 65B] |
| 680000 M⁻¹ s⁻¹ | CO[C@H]1CN(C(=O)/C=C/CN(C)C)C[C@@H]1COCCN1CC[C@H](Nc2nc(C)cc(C(F)(F)F)c2C#N)C(=O)N(C)c2cccc(F)c21 (relative stereo) [Example 48, 2-(((S)-6-(2-(((rel-3R,4R)-1-((E)-4-(Dimethylamino)-but-2-enoyl)-4-methoxypyrroli-din-3-yl)methoxy)-ethyl)-7-fluoro-1-methyl-2-oxo-1,2,3,4,5,6-hexa-hydrobenzo[b] [1,4]diazocin-3-yl)amino)-6-meth-yl-4-(trifluoro-methyl)nicotino-nitrile] |
| 820000 M⁻¹ s⁻¹ | Cc1cc(C(F)(F)F)c(C#N)c(N[C@H]2CCN(CCCOC3CN(C(=O)/C=C/CN(C)C)C3)c3cc(F)ccc3N(C)C2=O)n1 [Example 42, (S,E)-2-((6-(3-((1-(4-(Dimethylamino)but-2-enoyl)azetidin-3-yl)oxy)propyl)-8-fluoro-1-methyl-2-oxo-1,2,3,4,5,6-hexahydrobenzo[b][1,4]diazocin-3-yl)amino)-6-methyl-4-(trifluoromethyl)nicotinonitrile] |
